US8735414B2 (priority 2009, dated 2014)

Key:
[1] = system: bicistronic HCV replicon (replicon RNA, GenBank Accession No. AJ242654); test: HCV Replicon Assay; format: cell-based; settings: Hepatitis C virus, 72 h, read-out: Replicon IC50

SMILES	melting point [°C]	IC50 [1] [µM]
CCc1cc2c(cc1F)c(C(N)=O)c(-c1ccc(S(=O)(=O)N[C@@H](C)C(F)(F)F)cn1)n2-c1ncccn1 [compound 849, 6-ethyl-5-fluoro-1-(pyrimidin-2-yl)-2-(5-{[(2S)-1,1,1-trifluoropropan-2-yl]sulfamoyl}pyridin-2-yl)-1H-indole-3-carboxamide]	235 to 236	< 0.5
Cc1ccc2c(C#N)c(-c3ccc(S(=O)(=O)N[C@@H](C)C(F)(F)F)cn3)n(-c3ccccn3)c2c1 [compound 476, 6-[3-cyano-6-methyl-1-(pyridin-2-yl)-1H-indol-2-yl]-N-[(2S)-1,1,1-trifluoropropan-2-yl]pyridine-3-sulfonamide]	199 to 203	< 0.5
Cc1ccc2c(C#N)c(-c3ccc(S(=O)(=O)NC(CF)CF)cn3)n(-c3ccccc3)c2c1 [compound 111, 6-(3-cyano-6-methyl-1-phenyl-1H-indol-2-yl)-N-(1,3-difluoropropan-2-yl)pyridine-3-sulfonamide]	181 to 185	< 0.5
Cc1ccc2c(c1)c(C#N)c(-c1ncc(S(=O)(=O)NC(CF)CF)cn1)n2C(C)C [compound 567, 2-[3-cyano-5-methyl-1-(propan-2-yl)-1H-indol-2-yl]-N-(1,3-difluoropropan-2-yl)pyrimidine-5-sulfonamide]	160 to 163	< 0.5
N#Cc1c(-c2ccc(S(=O)(=O)NC(CF)CF)cn2)n(C2CCC2)c2cc(C3CC3)c(F)cc12 [compound 107, 6-(3-cyano-1-cyclobutyl-6-cyclopropyl-5-fluoro-1H-indol-2-yl)-N-(1,3-difluoropropan-2-yl)pyridine-3-sulfonamide]	182 to 186	< 0.5
CCNC(=O)c1c(-c2ccc(S(=O)(=O)N[C@@H](C)C(F)(F)F)cn2)n(C2CCCC2)c2cc(C)c(F)cc12 [compound 762, 1-cyclopentyl-N-ethyl-5-fluoro-6-methyl-2-(5-{[(2S)-1,1,1-trifluoropropan-2-yl]sulfamoyl}pyridin-2-yl)-1H-indole-3-carboxamide]	160 to 162	< 0.5
Cc1cc2c(cc1F)c(C#N)c(-c1ccc(S(=O)(=O)N[C@@H](C)C(F)(F)F)cn1)n2-c1nccs1 [compound 934, 6-[3-cyano-5-fluoro-6-methyl-1-(1,3-thiazol-2-yl)-1H-indol-2-yl]-N-[(2S)-1,1,1-trifluoropropan-2-yl]pyridine-3-sulfonamide]	203 to 208	< 0.5
CCc1cc2c(cc1F)c(C#N)c(-c1cc(C)c(S(=O)(=O)N[C@@H](C)C(F)(F)F)cn1)n2-c1ccccn1 [compound 852, 6-[3-cyano-6-ethyl-5-fluoro-1-(pyridin-2-yl)-1H-indol-2-yl]-4-methyl-N-[(2S)-1,1,1-trifluoropropan-2-yl]pyridine-3-sulfonamide]	178 to 183	< 0.5
CC(C)c1ccc2c(C#N)c(-c3ncc(S(=O)(=O)NC(CF)CF)cn3)n(C3CCC3)c2c1 [compound 186, 2-[3-cyano-1-cyclobutyl-6-(propan-2-yl)-1H-indol-2-yl]-N-(1,3-difluoropropan-2-yl)pyrimidine-5-sulfonamide]	214 to 222	< 0.5
Cc1cc(-c2c(C#N)c3cc(F)c(OC(F)F)cc3n2C2CCC2)ncc1S(=O)(=O)N[C@@H](C)C(F)(F)F [compound 822, 6-[3-cyano-1-cyclobutyl-6-(difluoromethoxy)-5-fluoro-1H-indol-2-yl]-4-methyl-N-[(2S)-1,1,1-trifluoropropan-2-yl]pyridine-3-sulfonamide]	204 to 210	< 0.5
CCCn1c(-c2ncc(S(=O)(=O)N[C@@H](C)C(F)(F)F)cn2)c(C#N)c2ccc(OC(F)F)cc21 [compound 400, 2-[3-cyano-6-(difluoromethoxy)-1-propyl-1H-indol-2-yl]-N-[(2S)-1,1,1-trifluoropropan-2-yl]pyrimidine-5-sulfonamide]	207 to 208	< 0.5
N#Cc1c(-c2ccc(S(=O)(=O)NC(CF)CF)cn2)n(-c2ncccn2)c2cc(OC(F)F)ccc12 [compound 635, 6-[3-cyano-6-(difluoromethoxy)-1-(pyrimidin-2-yl)-1H-indol-2-yl]-N-(1,3-difluoropropan-2-yl)pyridine-3-sulfonamide]	173 to 176	< 0.5
Cc1ccc2c(C#N)c(-c3ncc(S(=O)(=O)NC(CF)CF)cn3)n(C3CCC3)c2c1F [compound 557, 2-(3-cyano-1-cyclobutyl-7-fluoro-6-methyl-1H-indol-2-yl)-N-(1,3-difluoropropan-2-yl)pyrimidine-5-sulfonamide]	191 to 198	< 0.5
CCc1cc2c(cc1F)c(C(N)=O)c(-c1ccc(S(=O)(=O)N[C@@H](C)C(F)(F)F)cn1)n2-c1ccc(F)cc1 [compound 1019, 6-ethyl-5-fluoro-1-(4-fluorophenyl)-2-(5-{[(2S)-1,1,1-trifluoropropan-2-yl]sulfamoyl}pyridin-2-yl)-1H-indole-3-carboxamide]	210 to 217	< 0.5
Cc1ccc2c(c1)c(C#N)c(-c1ccc(S(=O)(=O)N[C@@H](C)C(F)(F)F)cn1)n2C1CCCCC1 [compound 560, 6-(3-cyano-1-cyclohexyl-5-methyl-1H-indol-2-yl)-N-[(2S)-1,1,1-trifluoropropan-2-yl]pyridine-3-sulfonamide]	175 to 180	< 0.5
CCc1cc2c(cc1F)c(C#N)c(-c1ccc(S(=O)(=O)N[C@@H](C)C(F)(F)F)cn1)n2-c1cc(OC)ccn1 [compound 955, 6-[3-cyano-6-ethyl-5-fluoro-1-(4-methoxypyridin-2-yl)-1H-indol-2-yl]-N-[(2S)-1,1,1-trifluoropropan-2-yl]pyridine-3-sulfonamide]	227 to 233	< 0.5
COc1ccc2c(C#N)c(-c3ncc(S(=O)(=O)N[C@@H](C)C4CC4)cn3)n(C3CCC3)c2c1 [compound 205, 2-(3-cyano-1-cyclobutyl-6-methoxy-1H-indol-2-yl)-N-[(1S)-1-cyclopropylethyl]pyrimidine-5-sulfonamide]	204 to 206	< 0.5
CC(C)NS(=O)(=O)c1cnc(-c2c(C(N)=O)c3ccc(OC(F)(F)F)cc3n2C2CCC2)nc1 [compound 781, 1-cyclobutyl-2-[5-(propan-2-ylsulfamoyl)pyrimidin-2-yl]-6-(trifluoromethoxy)-1H-indole-3-carboxamide]	222 to 223	< 0.5
CC(C)n1c(-c2ncc(S(=O)(=O)N[C@@H](C)C(F)(F)F)cn2)c(C#N)c2ccc(OC(F)F)cc21 [compound 399, 2-[3-cyano-6-(difluoromethoxy)-1-(propan-2-yl)-1H-indol-2-yl]-N-[(2S)-1,1,1-trifluoropropan-2-yl]pyrimidine-5-sulfonamide]	219 to 221	< 0.5
Cc1ccc2c(C#N)c(-c3ccc(S(=O)(=O)N[C@@H](C)C(F)(F)F)cn3)n(C3CCCC3)c2c1 [compound 352, 6-(3-cyano-1-cyclopentyl-6-methyl-1H-indol-2-yl)-N-[(2S)-1,1,1-trifluoropropan-2-yl]pyridine-3-sulfonamide]	176 to 180	< 0.5
